Test results published in patent publication US12371400B2, “Cathepsin inhibitors” (ACADEMISCH ZIEKENHUIS LEIDEN (H.O.D.N. LUMC), priority 2017, dated 2025).
“Also recorded” adds a separate entry of the source.

What was measured:
Cathepsin K = biological target: T1, Cathepsin K (Homo sapiens, UniProt P43235); assay: LC-MS of intact CatK and CatK-inhibitor complexes; assay type: binding; conditions: for formation of covalent CatK-inhibitor complex: 6 h incubation, intact protein LC-MS; for Measured mass complex: CatK 3 μM, inhibitor 100 μM, 37° C., 6 h, deconvoluted ESI mass
T1 sequence (P43235 115-329): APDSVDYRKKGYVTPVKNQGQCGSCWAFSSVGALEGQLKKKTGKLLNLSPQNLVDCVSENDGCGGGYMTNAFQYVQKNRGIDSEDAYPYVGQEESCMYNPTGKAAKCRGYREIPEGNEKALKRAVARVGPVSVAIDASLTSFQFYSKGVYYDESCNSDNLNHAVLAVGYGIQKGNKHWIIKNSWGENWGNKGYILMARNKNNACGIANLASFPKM
Description: The masses were determined from deconvoluted electrospray ionization mass spectra of CatK complexes. FIG. 4A to FIG. 4E each provide the result for a sample. In each of these FIGS. 4A to 4E the first panel provides the UPLC chromatogram, the second panel provides the electrospray ionization mass spectrum, and the third panel provides the corresponding deconvoluted electrospray ionization mass spectrum (average isotopes) with an indication of the measured mass of the predominant species. FIG. 4A provides the results obtained for intact CatK. FIG. 4B provides the results obtained for CatK.
Cathepsin K (3 μM) in reaction buffer ([…]) was incubated with inhibitor (100 μM) at 37° C. for 6 hours prior to analysis. 1 μL injections of the sample were made onto a XEVO-G2XSQTOF#YEA928 UPLC-MS system with a Waters Acquity CM detector. Chromatographic separation was carried out on a ACQUITY UPLC® Protein BEH C4 Column over a 12 minute gradient elution of 2% to 100% acetonitrile in water (0.1% formic acid) at a flow rate of 0.500 mL/min. For the first 4 minutes the flow was diverted to the waste to avoid contamination of the MS with high concentrations of buffer components. After 4 minutes, the elution flow was ionized with an ESI ionization source and measured on a XEVO-G2XSQTOF. The results were analyzed using MassLynx V4.1. The total mass of the complex was obtained by deconvolution of electrospray ionization mass spectrum envelope (average isotopes) with the MaxEnt1 function.
Cathepsin K was incubated with ODN, 4, 5 or 6 for 6 h to allow full covalent bond formation and submitted for measurement without any digestion steps, according to the method for LC-MS for intact CatK and CatK-inhibitor complexes described in the assays section above.

hCatK = biological target: T2, hCatK (Homo sapiens, UniProt P43235); assay: Kinetic evaluation of covalent inhibitors on purified hCatK; assay type: biochemical; conditions: 100 pM hCatK, 4 μM Z-FR-AMC, 26° C., reaction started by addition of CatK; for Ki: read-out: Kl; for kinact: read-out: kinact (converted)
T2 sequence (P43235 115-329): T1 sequence (P43235 115-329)
Description: The reaction kinetics of irreversible covalent inhibitor compounds may be assed in the following manner. Inhibitors (200 nL, 100× final concentration in DMSO) were diluted in reaction buffer (10 μL). Fluorogenic substrate (5 μL, 4× final concentration) was added and the reaction was started by addition of Cathepsin (5 μL, 4× final concentration). Fluorescence intensity was measured every 2 minutes for 60 minutes and fitted to equation I to obtain the Kobs. The obtained values were plotted against the inhibitor concentration and fitted to equation II to obtain kinetic parameters Kinact (rate of covalent bond formation) and Ki.
Kinetic evaluation of irreversible covalent inhibitors was conducted by following the progress curve of inhibition when the hydrolysis of substrate is started by addition of the enzyme (instead of incubating the protease with the inhibitor prior to addition of the substrate). From this curve the maximum rate of covalent bond formation (Kinact) could be determined (Table 4).

[1] = phase III clinical trials; cited from earlier work
[2] = in vivo; cited from earlier work
CatK = biological target: T3, CatK (Homo sapiens, UniProt P43235); conditions: cited from earlier work
T3 sequence (P43235 115-329): T1 sequence (P43235 115-329)

| Measured mass complex (Cathepsin K) | kinact/Kl (hCatK) [M⁻¹ s⁻¹] | Ki (hCatK) [µM] | kinact (hCatK) [s⁻¹] | Structure (SMILES) | formation of covalent CatK-inhibitor complex (Cathepsin K) | stroke risk [1] | half-life [2] [h] | selectivity for CatK versus other Cathepsins (CatK) |
| --- | --- | --- | --- | --- | --- | --- | --- | --- |
| 24231 | 250 | 3.25 | 0.000783 | C#CC(C)NC(=O)[C@H](CC(C)(C)F)N[C@@H](c1ccc(-c2ccc(S(C)(=O)=O)cc2)cc1)C(F)(F)F (mixture of isomers) [Compound 5, (S)—N—((R/S)-but-3-yn-2-yl)-4-fluoro-4-methyl-2-(((S)-2,2,2-trifluoro-1-(4′-(methylsulfonyl)-[1,1′-biphenyl]-4-yl)ethyl)amino)pentanamide] | formation of a covalent hCatK—inhibitor complex; also recorded: covalent complex formed |  |  |  |
| 24217 | 883 | 0.212 | 0.000183 | C#CCNC(=O)[C@H](CC(C)(C)F)N[C@@H](c1ccc(-c2ccc(S(C)(=O)=O)cc2)cc1)C(F)(F)F [Compound 4, (S)-4-fluoro-4-methyl-N-(prop-2-yn-1-yl)-2-(((S)-2,2,2-trifluoro-1-(4′-(methylsulfonyl)-[1,1′-biphenyl]-4-yl)ethyl)amino)pentanamide] | formation of a covalent hCatK—inhibitor complex; also recorded: covalent complex formed |  |  |  |
| 24244 |  |  |  | CC(C)(F)C[C@H](N[C@@H](c1ccc(-c2ccc(S(C)(=O)=O)cc2)cc1)C(F)(F)F)C(=O)NC1(C#N)CC1 [ODN, (S)—N-(1-cyanocyclopropyl)-4-fluoro-4-methyl-2-(((S)-2,2,2-trifluoro-1-(4′-(methylsulfonyl)-[1,1′-biphenyl]-4-yl)ethyl)amino)pentanamide, reference compound] | covalent complex formed | increased stroke risk | 66 to 93 | high selectivity |
